Assays:
[1] = 101.33 kPa, Liquid, Pycnometric method
[2] = excess molar enthalpy (molar enthalpy of mixing); xn = mol fraction of the nth substance listed; conditions: 297.15 K, 101 kPa, Liquid, Constant Pressure Calorimeter

C1CCNCC1 [piperidine]
[1]
Conditions | mass density [kg/m3]
293.65 K | 873.5
296.05 K | 867.1
298.15 K | 864.6
300.05 K | 856.3
302.65 K | 852.4
304.55 K | 852.6
306.45 K | 852.5
308.25 K | 850.6
310.35 K | 846.3
313.75 K | 842.2
315.15 K | 840.8
317.35 K | 837.7
319.15 K | 835.3
321.15 K | 833.5
323.05 K | 831.4

C1CCNCC1 [piperidine] + O
[2]
Conditions | excess molar enthalpy [kcal/mol]
x2 = 0 | 0
x2 = 0.05 | -0.0853
x2 = 0.09 | -0.123
x2 = 0.15 | -0.18
x2 = 0.21 | -0.268
x2 = 0.25 | -0.35
x2 = 0.3 | -0.4
x2 = 0.35 | -0.437
x2 = 0.4 | -0.461
x2 = 0.45 | -0.475
x2 = 0.5 | -0.511
x2 = 0.55 | -0.532
x2 = 0.6 | -0.53
x2 = 0.65 | -0.522
x2 = 0.7 | -0.495
x2 = 0.75 | -0.469
x2 = 0.93 | -0.234
x2 = 0.96 | -0.159
x2 = 0.99 | -0.0557

c1ccncc1 [pyridine]
[1]
Conditions | mass density [kg/m3]
293.95 K | 981
295.35 K | 979.2
297.25 K | 977.9
299.15 K | 975.3
301.25 K | 972.8
303.25 K | 971.7
305.15 K | 969.9
307.25 K | 967.9
309.25 K | 965.2
311.35 K | 963.6
313.15 K | 961.6
315.35 K | 959.8
317.55 K | 956.3
319.55 K | 953.9
321.15 K | 953.1

c1ccncc1 [pyridine] + O
[2]
Conditions | excess molar enthalpy [kcal/mol]
x2 = 0 | 0
x2 = 0.05 | -0.028
x2 = 0.1 | -0.061
x2 = 0.15 | -0.11
x2 = 0.2 | -0.156
x2 = 0.25 | -0.21
x2 = 0.3 | -0.247
x2 = 0.35 | -0.284
x2 = 0.4 | -0.33
x2 = 0.45 | -0.374
x2 = 0.5 | -0.389
x2 = 0.55 | -0.388
x2 = 0.6 | -0.378
x2 = 0.65 | -0.366
x2 = 0.7 | -0.332
x2 = 0.73 | -0.318
x2 = 0.89 | -0.154
x2 = 0.92 | -0.121
x2 = 0.95 | -0.0804
x2 = 0.98 | -0.0364

O [water] + C1CCNCC1
Conditions | excess molar enthalpy [kcal/mol]
[2], x1 = 1 | 0

O [water] + c1ccncc1
Conditions | excess molar enthalpy [kcal/mol]
[2], x1 = 1 | 0

— the NIST ThermoML archive (doi:10.1016/j.fluid.2009.10.018)
